From ChEMBL document CHEMBL2331167, “Inhibitory effect of novel somatostatin peptide analogues on human cancer cell growth based on the selective inhibition of DNA polymerase β” (Bioorg Med Chem, 2013)
Calls of active or inactive are those of the source. No cut-off for these calls is given here.

Legend:
HCT-116 [1] = assay: Induction of apoptosis in p53 -/- human HCT116 cells assessed as apoptotic cells at 13.7 uM incubated for 24 hrs by TUNEL analysis; assay type: functional, cell-based
HCT-116 [2] = assay: Induction of apoptosis in p53 -/- human HCT116 cells assessed as DNA fragmentation at 13.7 uM incubated for 24 hrs by agarose gel electrophoresis; assay type: functional, cell-based
HCT-116 [3] = assay: Induction of apoptosis in p53 +/+ human HCT116 cells assessed as DNA fragmentation at 13.2 uM incubated for 24 hrs by agarose gel electrophoresis; assay type: functional, cell-based
HCT-116 [4] = assay: Cytotoxicity against MMS-induced p53 +/+ human HCT116 cells assessed as reduction in clonogenic survival at 13.2 uM incubated for 24 hrs by WST-1 assay relative to control; assay type: functional
[5] = Cytotoxicity against human dermal fibroblasts; settings: hdf
HCT-116 [6] = assay: Cytotoxicity against p53 +/+ human HCT116 cells assessed as growth inhibition incubated for 24 hrs by WST-1 assay; assay type: functional; settings: HCT-116, 24 h, read-out: LD50 (the source's name)
HCT-116 [7] = assay: Cytotoxicity against p53 +/+ human HCT116 cells assessed as growth inhibition at 200 uM incubated for 24 hrs by WST-1 assay; assay type: functional, cell-based
DNA polymerase kappa = target: T1, DNA polymerase kappa (Homo sapiens, UniProt Q9UBT6); assay: Inhibition of human DNA polymerase kappa using poly(dA)/oligo(dT)18 (A/T, 2/1)/dTTP DNA template-primer substrate measured at 37 degC for 60 mins
T1 sequence (Q9UBT6 whole entry): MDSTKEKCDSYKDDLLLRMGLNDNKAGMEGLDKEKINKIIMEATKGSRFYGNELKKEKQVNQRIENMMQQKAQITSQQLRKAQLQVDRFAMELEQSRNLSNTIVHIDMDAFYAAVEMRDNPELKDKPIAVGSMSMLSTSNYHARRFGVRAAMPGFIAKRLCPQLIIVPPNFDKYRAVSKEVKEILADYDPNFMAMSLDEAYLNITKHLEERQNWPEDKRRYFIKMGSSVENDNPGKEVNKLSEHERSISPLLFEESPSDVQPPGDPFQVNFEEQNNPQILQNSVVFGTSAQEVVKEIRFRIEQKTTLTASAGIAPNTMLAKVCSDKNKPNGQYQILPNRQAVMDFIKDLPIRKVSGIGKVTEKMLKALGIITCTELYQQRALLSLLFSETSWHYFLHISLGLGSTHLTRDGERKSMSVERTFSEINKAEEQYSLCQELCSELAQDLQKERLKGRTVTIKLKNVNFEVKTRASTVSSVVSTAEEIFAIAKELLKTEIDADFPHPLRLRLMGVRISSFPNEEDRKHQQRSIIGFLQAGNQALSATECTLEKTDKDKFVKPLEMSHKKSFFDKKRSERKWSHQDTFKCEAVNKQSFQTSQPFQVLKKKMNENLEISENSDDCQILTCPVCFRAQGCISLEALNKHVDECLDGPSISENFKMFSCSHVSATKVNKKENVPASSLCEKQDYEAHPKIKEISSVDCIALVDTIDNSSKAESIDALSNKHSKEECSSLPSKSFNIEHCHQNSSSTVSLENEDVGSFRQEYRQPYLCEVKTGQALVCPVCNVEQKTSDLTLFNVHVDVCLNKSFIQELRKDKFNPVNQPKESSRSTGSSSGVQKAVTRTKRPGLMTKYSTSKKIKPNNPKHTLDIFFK

DNA polymerase beta = DNA polymerase beta (Rattus norvegicus, UniProt P06766); assay: Inhibition of rat DNA polymerase beta using poly(dA)/oligo(dT)18 (A/T, 2/1)/dTTP DNA template-primer substrate measured at 37 degC for 60 mins
[8] = target: T2, DNA polymerase subunit gamma-1 (Homo sapiens, UniProt P54098); assay: Inhibition of human DNA polymerase gamma using poly(dA)/oligo(dT)18 (A/T, 2/1)/dTTP DNA template-primer substrate measured at 37 degC for 60 mins
T2 sequence (P54098 whole entry): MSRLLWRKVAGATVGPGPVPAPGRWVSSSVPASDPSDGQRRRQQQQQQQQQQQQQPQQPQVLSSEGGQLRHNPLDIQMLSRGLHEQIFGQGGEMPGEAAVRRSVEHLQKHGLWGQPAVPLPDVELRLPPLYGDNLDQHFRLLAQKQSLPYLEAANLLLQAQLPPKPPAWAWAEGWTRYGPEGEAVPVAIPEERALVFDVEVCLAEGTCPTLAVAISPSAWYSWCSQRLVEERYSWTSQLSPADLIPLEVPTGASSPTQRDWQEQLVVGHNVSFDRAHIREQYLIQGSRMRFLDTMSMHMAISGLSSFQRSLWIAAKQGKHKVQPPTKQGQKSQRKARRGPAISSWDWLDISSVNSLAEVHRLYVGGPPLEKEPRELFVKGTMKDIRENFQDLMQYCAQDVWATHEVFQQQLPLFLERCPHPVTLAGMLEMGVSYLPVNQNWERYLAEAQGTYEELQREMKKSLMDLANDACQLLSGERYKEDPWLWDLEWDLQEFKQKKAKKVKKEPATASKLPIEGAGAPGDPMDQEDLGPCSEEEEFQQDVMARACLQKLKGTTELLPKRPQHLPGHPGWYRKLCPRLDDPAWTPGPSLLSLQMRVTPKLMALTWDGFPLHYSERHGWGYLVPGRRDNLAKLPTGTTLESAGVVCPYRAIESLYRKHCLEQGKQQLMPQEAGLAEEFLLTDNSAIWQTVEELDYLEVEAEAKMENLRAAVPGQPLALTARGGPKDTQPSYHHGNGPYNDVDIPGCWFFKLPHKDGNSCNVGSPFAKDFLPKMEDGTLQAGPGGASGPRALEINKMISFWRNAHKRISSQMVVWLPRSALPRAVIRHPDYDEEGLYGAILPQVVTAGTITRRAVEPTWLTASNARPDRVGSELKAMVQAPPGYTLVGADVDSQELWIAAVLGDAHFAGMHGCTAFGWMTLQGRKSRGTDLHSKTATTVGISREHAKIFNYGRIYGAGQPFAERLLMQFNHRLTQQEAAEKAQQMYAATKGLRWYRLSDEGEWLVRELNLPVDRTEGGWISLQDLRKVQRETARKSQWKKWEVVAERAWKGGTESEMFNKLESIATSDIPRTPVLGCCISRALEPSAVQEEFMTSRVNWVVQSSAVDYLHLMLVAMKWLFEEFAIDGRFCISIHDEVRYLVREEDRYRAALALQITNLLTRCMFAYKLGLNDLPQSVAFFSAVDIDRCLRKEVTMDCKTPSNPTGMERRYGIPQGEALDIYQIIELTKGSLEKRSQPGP

With `CC[C@H](C)[C@H](NC(=O)[C@H](Cc1ccc(O)cc1)NC(=O)OC(C)(C)C)C(=O)Nc1cccc2ccccc12` the Activity (HCT-116 [1]) was “Active”, the Activity (HCT-116 [2]) was “Active” and the Activity (HCT-116 [3]) was “Active”. The “fold change (FC)” value (HCT-116 [4]) was 2, the Activity [5] was “Non-toxic” and the CC50 (HCT-116 [6]) was 13.2 µM. The “growth inhibition (GI)” value (HCT-116 [7]) was “Active”, the IC50 (DNA polymerase kappa) was greater than 200 µM and the IC50 (DNA polymerase beta) was 11.5 µM. For the same compound, the IC50 [8] was greater than 200 µM.
